Results on five molecules are retold here after patent publication US9175077B2, “Nucleic acids encoding biologically active polypeptides derived from a novel early stage pregnancy factor designated maternin (MA)” (NOBEL BIOSCIENCES LLC, priority 1999, dated 2015).

The test system of one assay is HIV-1. The settings on record: controls at similar, equimolar or higher concentrations. The protocol: Virus (MOI of 0.001) was added to 10^6 cells in RPMI-1640 with 10% FCS. One hour later the various polypeptides were added once. The cells cultured for 3 days with 5 ug PHA and 20 i.m. of II-2/ml at 37°, after which virus was estimated by determining p24 (HIV-1) or p27 (SIV) (Organon-Teknika).
The effect of native and synthetic MA on HIV-1 infection in vitro was evaluated using PHA and II-2 stimulated primary peripheral blood cells (PBMC), CD4+ T-cells enriched fractions from PBMC, and CD14+ macrophage enriched fractions. Infection was with HIV-1 IIIB (PBMC and CD4+ T-cells), HIV-1 Ba-L (macrophages), and two primary HIV-1 isolates not passaged in any cell line (PBMC).

Assay [1] relates to human carcinoma and sarcoma cells (PC3, KS Y-1). Put plainly: Xenotransplanted human tumors in immunodeficient mice. The class given is in vivo. The settings on record: controls at equivalent and higher molar concentrations. The protocol:
In the first set of experiments, MA was tested against tumors formed by xenotransplantation of various human carcinoma and sarcoma cells in immunodeficient mice. […] […] Three different synthetic forms of MA were used: full length (MAS3) and the previously described MAS1 and MAS2 (Panel C).

The subject of assay [2] is carcinoma of the kidney HTB46. Put plainly: Confocal microscopy apoptosis. The settings on record: 200 ng/ml; 24 hrs. The class given is cell-based, human. The protocol: (§1) More extensive studies of the effects of MA and with truncated synthetic forms of MA (MAS) on a wide range of other human tumor cells were carried out using three-dimensional confocal microscopy. Cells were cultured and then seeded onto gelatinized glass chamber slides and incubated 24 hrs with the various test materials. The slides were then fixed with formalin and treated serially with Triton X-100 (0.01%) for 10 min at 25°, 0.4 ug/ml fluorescein isothiocyanate (FITC)-labeled Phalloidin (Sigma Chem. Co.) at room temperature for 30 min to bind actin, washed with PBS and the DNA stained with Propidium iodide (PI) (0.5 ug·ml) (Sigma Chemical Co.), for 15 min. The stained slides were washed and mounted on slow fade (Molecular Probes, Inc., Eugene, Oreg.) and examined through a dual emission filter XF53 (Omega, Inc., Brattlesboro, Va.) by fluorescent microscopy. In some experiments only DNA staining was performed. In these instances Triton X-100 was not used. The slides were stained with PI and examined for cell morphology and chromatin degradation under 3D confocal microscopy.

Assay [3] relates to prostate carcinoma cell line PC4. Nature of the assay: Confocal microscopy apoptosis. It counts as cell-based, human. As to conditions: 200 ng/ml; 24 hrs. The protocol:
as §1

The test system of a further assay is Ewing's sarcoma. Put plainly: Confocal microscopy apoptosis. The class given is cell-based, human. The settings on record: 200 ng/ml; 24 hrs. The protocol: as §1
For assay [4], the system named is prostate carcinoma cell line PC3. Put plainly: Confocal microscopy apoptosis. The class given is cell-based, human. As to conditions: 200 ng/ml; 24 hrs. The protocol: as §1
Assay [5] relates to carcinoma of the lung HTB184. Put plainly: Confocal microscopy apoptosis. It counts as cell-based, human. As to conditions: 200 ng/ml; 24 hrs. The protocol:
as §1

For the next assay, the system named is gliobastoma HTB16. Nature of the assay: Confocal microscopy apoptosis. It counts as cell-based, human. The settings on record: 200 ng/ml; 24 hrs. The protocol:
as §1

A further assay concerns fibrosarcoma 4TB166. Put plainly: Confocal microscopy apoptosis. The class given is cell-based, human. As to conditions: 200 ng/ml; 24 hrs. The protocol: as §1
A further assay concerns KS Y-1 cells. Put plainly: Confocal microscopy apoptosis. The class given is cell-based, human. The settings on record: 200 ng/ml; 24 hrs. The protocol: as §1
The test system of assay [6] is carcinoma of the breast HTB124. Put plainly: Confocal microscopy apoptosis. The class given is cell-based, human. The settings on record: 200 ng/ml; 24 hrs. The protocol:
as §1

Assay [7] relates to leukemia and lymphoma cell lines: HUT78, DAVDI, HG, SULTAN, T-cell lymphoma. Put plainly: Confocal microscopy apoptosis. It counts as cell-based, human. The settings on record: 200 ng/ml; 24 hrs. The protocol: as §1
Another assay deals with carcinoma of the colon. Put plainly: Confocal microscopy apoptosis. The class given is cell-based, human. The settings on record: 200 ng/ml; 24 hrs. The protocol: as §1
The subject of a further assay is melanoma HTB67. Nature of the assay: Confocal microscopy apoptosis. The settings on record: 200 ng/ml; 24 hrs. The class given is cell-based, human. The protocol:
as §1

In assay [8] the test system is carcinoma of the pancreas CRL 1682. Nature of the assay: Confocal microscopy apoptosis. The class given is cell-based, human. The settings on record: 200 ng/ml; 24 hrs. The protocol: as §1
A further assay deals with human tumor cells. It counts as cell-based. As to conditions: controls at equimolar or 5 to 10× greater concentrations. The protocol:
The anti-tumor activities of MA were assessed in several in vitro and in vivo systems using published methods.^166 In vitro studies were with a wide variety of human tumor cell lines as well as short-term cultures of cells from biopsy samples obtained from tumors. The assays included effects of MA on colony formation, cell number and viability (trypan blue), and apoptosis. Four measures of microscopy were used. In vivo studies included the effects of MA on tumors induced in immunodeficient mice by xenotransplanted various human neoplastic cells, spontaneous neoplasms of immuno-competent mice and rats, and a few standard tumors in immuno-competent mice. Representative examples are presented.
Cells (5×10^5/ml) were seeded in modified Eagle's medium supplemented with 10% FCS, 10% conditioned medium form PHA stimulated human lymphocytes, 2 mM glutamine in 0.8% V/V methylcellulose with or without various treatments in a final volume of 1.0 ml. Then 0.1 ml aliquots were seeded in 96 well flat bottom microtest plates and incubated at 37° C. in 5% CO2 in air for 7 days. Aggregates containing 50 cells or more were scored as colonies.
5×10^5 cells were seeded in triplicate on 24 gelatin coated wells in conditions as described for Panel A and treated with the indicated test materials. After 3 days the cells were dislodged from their monolayers by gentle pipetting with cell dissociation buffer (Life Technologies), counted after trypan blue staining and aliquots examined for Annexin V staining by indirect IFA […].
Studies of the anti-tumor cell effects of MA were extended to other carcinomas, melanoma, some hematopoietic tumors, and carcinomas of the colon, prostate, breast, lung, brain, pancreas, and kidney-using cell lines from these tumors. […] Many more types of tumor cells were studied utilizing other assays (see below).

For the next assay, the system named is HIV-1 gene expression. Nature of the assay: HIV-1 transgenic mice, pups feeding from treated mothers. The class given is in vivo. As to conditions: mouse, in vivo. From the text: The transgenic mice contain 5.1 kb of the HIV-1 proviral genome, lacking gag and pol genes and 2.3 kb of vector.^172 The newly developed transgenic rat contains the same HIV-1 sequences and vector.
Twenty-four hours after birth the mothers were either inoculated subcutaneously daily for 10 days or received an implanted osmotic pump delivering 30-150 pmoles of either native or synthetic MA or pMA. Various control polypeptides were used at equimolar or vast molar excess. The newborn pups were then allowed to feed from the foster mother breast milk over the entire period. Since the animals are at risk from needle inoculation, breastfeeding was the chosen route for MA administration.
In these experiments total RNA was extracted from samples of skin RNA206 10 days after birth of MA treated and untreated mice. One ug of RNA was reverse transcribed into cDNA using random hexamer primer and […] reverse transcriptase (Life Technologies, Inc.) in a final vol. Of 30 ul. Three ul of each reaction was used for PCR amplification of the HIV-1 gene sequences (env, tat, nef, and rev) as described […], and glyceraldehyde 3-phosphate dehydrogenase (GAPDH) was amplified from each sample for normalization. After 25 cycles, 10% of the products were resolved by electrophoresis on 2% agarose gels, transferred to nitrocellulose membranes by Southern blotting, and hybridized to fluorescein isthiocyanate-labeled oligonucleotide probes complementary to internal sequences of the amplicons […]. Bound probes were detected by chemiluminescence (Amersham) and relative mRNA levels determined by densitrometry after normalization with GAPDH mRNA levels.

The nature of assay [9]: Summary of active and inactive peptides / overall biological activities.
Assay [10] can be described thus: Lethal dose taxol in Sprague-Dawley rats. It counts as in vivo. As to conditions: even at high doses. The protocol:
Sprague-Dawley rats were given taxol in large lethal doses, 4.5 mg in one I.P. inoculation. […] Bone marrow suppression can also be a side effect of the clinical use of taxol.^179 As in the radiation experiments, either MA, pMA, MAS1, or various polypeptide controls were given subcutaneously only in two doses 24 and 48 hrs before taxol treatment or were given 3×/week for 4 weeks. […]

For assay [11], the system named is hematopoietic progenitors (CFU-GEMM, BFU-e, CFU-GM, T-CFC). Put plainly: Hematopoietic colony formation assays. The class given is cell-based, human. The source says:
Hematopoietic colony formation assays with bone marrow or cord blood of normal human volunteers and bone marrow of monkeys, rats, and mice were utilized. The assays are conventional measurements of the number of progenitors for erythrocytes, granulocytes, macrophages, platelets, and T-cells. The culture conditions included growth factors that would give near optimum growth for the particular lineage. These factors included II-3, PHA-lymphocyte conditioned medium, erythropoietin (EPO), II-6, and GM-CSF. The number of colonies developing in methylcellulose reflects the number of progenitor cells, and the percent increase is a measure of the effect of different polypeptides to increase colony number above the maximum obtained with the indicated known growth factors.
The latter is a less conventional assay, and details on the methods involved are described elsewhere.^178

Assay [12] can be described thus: Lethally irradiated rats and mice. The settings on record: treated at time of radiation. The protocol:
In order to determine in vivo relevance of the prohematopoietic effects of MA treated rats and mice under several conditions of bone marrow suppression. First, the effects of native MA and pMA and of the synthetic 15-mer MAS1 were treated for their capacity to reduce or prevent the effects of lethal doses of gamma irradiation. […] MA, pMA, MAS1, and various control polypeptides were given 48 and 24 hrs before, during, or 24 hrs after radiation. The animals treated prior to radiation received either 100 ng vs. 1 ug (rats) or 50 ng vs. 500 ng (mice) as 2 subcutaneous injections.
It is not yet possible to determine the precise molar dose of pMA because of less certainty on its full-length sequence.
To ascertain that the MA effect did promote hematopoiesis in these animals we examined the bone marrow for cellularity and colony formation and determined peripheral blood counts.

Entries after “also recorded” stand apart in the source; their conditions may differ. Read-outs that look alike come from different tables or passages of the source.

For “NYRDVRFESIRLPGCPRGVNPVVSYAVALS (listed as Homo sapiens) [MAS2]”, the “inhibition of HIV replication (qualitative)” value with HIV-1 was “full-inhibition”. Further, in assay [1], the “effect on xenotransplanted tumor (qualitative)” value was “hypocellularity and degenerative changes of the cells; also recorded: undergoing apoptosis”. Further, the induction of apoptosis result (in assay [2]; in assay [3]; in the assay on Ewing's sarcoma; in [4]; in [5]; with gliobastoma HTB16) was “induced apoptosis” throughout. Also, the induction of apoptosis entry (in the assay with fibrosarcoma 4TB166; with KS Y-1 cells; in [6]; in assay [7]; in the assay with carcinoma of the colon; in the assay on melanoma HTB67) was “induced apoptosis” throughout. In addition, the induction of apoptosis entry in [8] is reported as “induced apoptosis”.

With “β-hCG 6-39: SEQ ID NO: 17 (RPRCRPINATLAVEKEGCPVCITVNTTICAGYCP; listed as Homo sapiens)”, the “inhibition of growth / induction of apoptosis of neoplastic cells” value in the assay on human tumor cells was “negative”.

For the molecule “β-hCG AA 21-52: control peptide 32 amino acids in length, AA 21-52 of β-hCG (EGCPVCITVNTTICAGYCPTMTRVLQGVLPAL; listed as Homo sapiens) [reference compound]”, the “inhibition of growth / induction of apoptosis of neoplastic cells” value in the assay with human tumor cells is reported as “negative”. In addition, in the assay with HIV-1 gene expression, the “HIV-1 viral expression in tissues” value is listed as “high expression” and the “mice dead by day 10” value is listed as 10 of 10.

As for “peptide 6-42: β-core AA 6-42 N-terminal polypeptide with PDGF related sequences (RPRCRPINATLAVEKEGCPVCITVNTTICAGYCPTMT; UniProt P0DN86 26-62, looked up, fragment) [reference compound]”, the “biological activities in vitro or in vivo in the experimental systems described” value in [9] was “none of the activities”.

B1: β-core: purified hCG beta core, degradation product of the beta chain of hCG; full length native glycosylated AA 6-40 & 55-92 (protein)
chain 1: RPRCRPINATLAVEKEGCPVCITVNTTICAGYCPTMT
chain 2: VVCNYRDVRFESIRLPGCPRGVNPVVSYAVALSCQCAL
Consider B1, for which, in the assay on human tumor cells, the “inhibition of growth / induction of apoptosis of neoplastic cells” value is given as “no inhibition of growth or induction of apoptosis”. Also, the “effect on survival (qualitative)” value in [10] was “no effect”. Also, the “HIV-1 viral expression in tissues” value in the assay with HIV-1 gene expression is given as “high expression”. Besides, in the assay on HIV-1 gene expression, the “mice dead by day 10” value is recorded as 10 of 10. Also, the “hematopoietic effects in vivo and in vitro” value in [11] is “None”. The “effect on colony number (qualitative)” value in assay [11] (equimolar or higher concentrations) was “no significant effect above background”. Further, in [12], the “time within which animals died” value is at most 5 days. Further, the “biological activities in vitro or in vivo in the experimental systems described” value is given as “none of the biological activities” in assay [9] (listed as native glycosylated β-core) and “no activity” in assay [9] (listed as purified native glycosylated core). For the same molecule, in assay [1], the “effect on xenotransplanted tumor (qualitative)” value is “no effect”.
